Results: patent publication US20040175722A1, “Methods and compositions for reducing screening in oligonucleotide-directed nucleic acid sequence alteration” (priority 2002, published 2004)

What was measured:
[1] = test system: mutant hygromycin resistance gene in Mata+IntHYG(rep)eGFP; assay: Yeast cell targeting assay: oligonucleotide-directed alteration of the integrated hygromycin-eGFP target; assay type: cell-based; details: for Alteration per 10^5 Aureobasidin^R colonies: average of four experiments with standard deviation
human β-globin gene [2] = assay: Dual oligonucleotide experiment: screen of hygromycin-resistant colonies for alteration of the β-globin target in the βS YAC (PCR, SNaPshot); details: in hygromycin-selected population; with or without Rad51 overexpression
[3] = test system: mutated Hyg(rep)eGFP target in Mata-intHyg(rep)eGFP/βYAC; assay: Dual oligonucleotide experiment: conversion efficiency for the hygromycin target (Example 2); assay type: cell-based, yeast
[4] = test system: chromosomal hygromycin mutant gene in LSY678IntHyg(rep)β cells; assay: Dual targeting protocol: correction efficiency (C.E.) of the chromosomal hygromycin mutation (Example 4); assay type: cell-based, yeast; details: LSY678IntHyg(rep)β + RAD51 expression plasmid; HU and TSA; compared with FIG. 3
human β-globin gene [5] = assay: Dual targeting protocol: second-site editing of the YAC β-globin gene in hygromycin-resistant colonies (SNaPshot, sequencing); details: RAD51 overexpression; HU and TSA

| Substance | Fold correction (relative to Hyg3S/74T) [1] [x] | Alteration per 10^5 Aureobasidin^R colonies [1] | alteration efficiency of the β-globin gene relative to alteration of the hygromycin target (human β-globin gene [2]) | other results |
| --- | --- | --- | --- | --- |
| 5′-C*T*C* GTGCTTTCAGCTTCGATGTAGGAGGGCGTGGATACGTCCTGCGGGTAAATAGCTGCGCCGATGGTTTC *T*A*C-3′ [Hyg3S/74T] | 1 | 0.22 ± 0.3 per 10^5 Aureobasidin^R colonies |  |  |
| 5′-G*C*C* TCACCACCAACTTCATCCACGTTCACCTTGCCTCACAGGGCAGTAACGGCAGACTTCTCCACAGG*A *G*T-3′ [βS-386m] |  |  | approximately 10 fold |  |
| 5′-G*T*A* GAAACCATCGGCGCAGCTATTTACCCGCAGGACGTATCCACGCCCTCCTACATCGAAGCTGAAAGCAC*G *A*G-3′ [Hyg3S/74NT] | 4.0 | 0.89 ± 1.3 per 10^5 Aureobasidin^R colonies |  | Hygromycin Alteration Efficiency (/10^5) ([3]; βS-378m Experiment, Mata-intHyg(rep)eGFP/βYAC (HU + TSA)): 12.79 /10^5; Hygromycin Alteration Efficiency (/10^5) ([3]; βS-378m Experiment, Mata-intHyg(rep)eGFP/βYAC + pYNARad51 (HU + TSA)): 96.96 /10^5; Hygromycin Alteration Efficiency (/10^5) ([3]; βS-386m Experiment, Mata-intHyg(rep)eGFP/βYAC (HU + TSA)): 12.35 /10^5; Hygromycin Alteration Efficiency (/10^5) ([3]; βS-386m Experiment, Mata-intHyg(rep)eGFP/βYAC, no HU or TSA): 3.22 /10^5; effect of RAD51 expression on hygromycin correction efficiency [4]: increases |
| 5′-T*A*A* CGGCAGACTTCTCCACAGGAGTCAGGTGCACCGTGGTGTCTGTTTGAGGTTGCTAGTGAACACAG*T *T*G-3′ [βS-378m] |  |  | approximately 10 fold | cells bearing the corrected hygromycin that also contain the edited β-globin gene (human β-globin gene [5]): approximately 10% |
